Results from patent US20110311601A1, “ANTIMICROBIAL MEDICAL DEVICES” (priority 2010, published 2011).
“And” between values parts separate entries of the source, which are not always exact repeats. Equal entries are not always repeated. Where no end group is shown, it is not given here.

Legend:
[1] = test system: Escherichia coli strain DB3.1; assay: microdilution assay of hβD2 coated biopolymers (percentage killing); assay type: cell-based
Method: Microdilution assay. In the microdilution assay the microorganisms were exposed to a potential bio-active substance in liquid surrounding, thus free to move. This potential bio-active substance was either homogenously dispersed in the liquid surrounding by active mixing at the beginning of the tests or could spread out of the sample during incubation time. The bioactivity was measured in percentage killing, wherein the number of colony forming units (CFU) in a control without test substance was set to 0% killing and a reduction in the cell number to zero was set to 100% killing.
Fresh cells were harvested by centrifugation at 1600 rpm for 10 min, the supernatant was removed and the cell pellet was resuspended in 5 ml 10 mM sodium phosphate buffer. This procedure was repeated twice. The optical density was adjusted to OD600 of 0.500 with 10 mM sodium phosphate buffer. 100 μl of the bacterial suspension was pipetted in one well of a microtiter plate without optimized surface. 10 μl test substance or test sample was added. In case of a test substance, the mixture was homogenized by absorbing the mixture several times with a pipette. The microtiter plate is then closed with parafilm and incubated at 37° C. for 2 h. After incubation the substances in the wells were mixed by a pipette. […] For evaluation, the grown colonies were counted.
The microdilution assay facilitates the examination of the hβD2 release kinetics of the biopolymers and thus allowed conclusions on what amounts of hβD2 in which time could be released. For comparing on evaluation of the assay the effect of directly applied hβD2 amounts with the effect of hβD2 amounts applied on biopolymers, the achieved percentage killing of bacteria was compared to the killing rate of the hβD2 standard series in the microdilution assays.
The collagen scaffolds and polylactide matrices were examined in the microdilution assay regarding their hβD2 release kinetics. Since the incubation time of the samples in the bacterial suspension is limited, the samples were stored at −25° C. after the test and until completion of a further assay. The thawed samples were then used in a new assay and were incubated again.

[2] = test system: Escherichia coli strain DB3.1; assay: agar diffusion assay (zone of inhibition); assay type: cell-based
Method: Agar diffusion assay. In the agar diffusion assay the microorganisms were exposed immovable to the potential bio-active substance by inclusion in an agar containing medium. The use of a nutrient limited minimal medium led first to a limitation of the development of the bacteria. The test substances were dependent on the application form pipetted into the punched recess in the agar or placed with a test sample into the punched recess in the agar and spread out during incubation time by diffusion into the agar. After incubation the nutrient limitation of the bacteria was revoked. The determination of the bioactivity was performed by measuring the diameter of the raised zone of inhibition surrounding the recess.
Therefore, Escherichia coli strain DB3.1 (Invitrogen, Cat. No. 11782-018) was used. E. coli was streaked from a glycerol stock onto a Brain Heart Infusion (BHI) agar plate (3.7% (w/v) BHI Bouillon, 1.5% (w/v) Agar) and was grown overnight at 37° C. Subsequently one colony was used to inoculate 8 ml of TSB medium (Caso Bouillon 3% (w/v)) without any antibiotics in a culture tube which was then incubated shaking (120 rpm) over night at 37° C. 50 μl of this pre-culture was used to inoculate again 8 ml of TSB medium (Caso Bouillon 3% (w/v)) without any antibiotics in a fresh culture tube which was then incubated shaking (125 rpm) for 3.5 h at 37° C. The OD600 of the bacterial suspension was then 0.500.
The underlay medium (11% (v/v) 0.1 M sodium phosphate buffer pH 7.2, 1% (v/v) TSB-medium, 0.02% (v/v) Tween, 1% (w/v) agarose in distilled water, pH 7.2), a minimal medium, was liquefied using micro waves and cooled to about 47° C. 10 ml underlay medium with 500 μl bacterial suspension were mixed in a 50 ml falcon tube by slight swirling and then was poured into a petri dish. The cooling time was first 15 min at room temperature and then 30 min at 4° C. Afterwards the recesses for test liquids (diameter 3 mm) and test materials (diameter 6 mm), respectively, were punched out from the underlay medium by using a punching-dye. 5 μl test liquid was pipetted per recess and the test materials were laid into the recess or were slid under the underlay medium, respectively. The lid of the plate was closed by parafilm and the plate was incubated over night at 37° C. The next day, the overlay medium (3.4% (w/v) casein peptone, 0.6% (w/v) soy flour peptone, 0.5% (w/v) di-potassium hydrogen phosphate, 1% (w/v) NaCl, 0.5% (w/v) glucose, 1% (w/v) agarose in distilled water) was liquefied using micro waves and cooled to about 47° C. In every Petri dish 10 ml overlay medium were poured on the underlay medium. After cooling for 5 minutes the plate was closed by the lid and incubated at 37° C. for about 2-3 h. For evaluation, the diameter of the raised zones of inhibition surrounding the recesses was measured.
The potential of the chosen biopolymers to release bio-active hβD2 after coating/mixing them with hβD2, was determined by a screening in the diffusion assay (as described in Example 5). The assay allows a correlation between the released amounts of bio-active molecules and the resulting zone of inhibition surrounding the releasing source. A comparison with the effect of directly applied, defined amounts of hβD2 allows an evaluation of the release potential of the test materials.
In the assay films made of 1% hyaluronic acid and 1% alginic acid, gelatin leaves, gelatinized agarose drops of 1% agarose solution and films of the dried drops were used. Additionally three variants of a polylactide matrix (uncoated, coated with collagen, coated with collagen and chondroitin sulphate) and collagen scaffolds were tested.
The samples were prepared as described in example 5 and treated with 10 μg hβD2. For the comparison between the effect of directly applied hβD2 amounts and the effect of hβD2-coated samples a standard series for 0.1, 1, 5 and 10 μg hβD2 was performed. The control was formed by the 0.01% acetic acid. […]

How did the bacteria killing ([1]; 2 μg hβD2 on collagen scaffold, after 13 hours) turn out when “human β-defensin-2 (GIGDPVTCLKSGAICHPVFCPRRYKQIGTCGLPGTKCCKKP; ends and bridges not checked; cysteine pairing not given here) [hβD2, recombinant hβD2]” was run?
The bacteria killing was 18%.

And the killing rate ([1]; 2 μg hβD2 on collagen scaffold, first 2 hours)?
The killing rate was no more than 36%.

What about the killing rate ([1]; 4 μg hβD2 and 5 μg chondroitin sulphate on collagen scaffold, 0-2 hours) of the same substance?
Its killing rate is 54%.

And the killing ([1]; 4 μg hβD2 and 20 μg spermidine on collagen scaffold, 0-2 hours)?
Its killing is 19%.

And the killing rate ([1]; 4 μg hβD2 on collagen scaffold impregnated with 20 μl of 0.1 M L-glutamic acid solution, 0-2 hours)?
Its killing rate is 53%.

And the killing rate ([1]; 4 μg hβD2 on collagen scaffold impregnated with 20 μl of 0.1 M L-lysine solution, 0-2 hours)?
Its killing rate is 11%.

What about the killing ([1]; 4 μg hβD2 on collagen scaffold pre-treated with 10 μl of 0.1% gelatine solution, 0-2 hours) of the same substance?
The killing was 94%.

What about the killing rate ([1]; 4 μg hβD2 on collagen scaffold treated with 5 μg BSA, 0-2 hours) of the same substance?
Its killing rate is 98%.

What about the “killing of the bacteria” value ([1]; 4 μg hβD2 on collagen scaffold treated with 5 μg HAS, 0-2 hours) of the same substance?
Its value is 100%.

What about the killing rate ([1]; 4 μg hβD2 on collagen scaffold treated with 60 μg poly-L-glutamic acid, 0-2 hours) of the same substance?
Its killing rate is 23%.

And the killing rate ([1]; 4 μg hβD2 on collagen scaffold without pre-treatment, first 2 hours)?
The killing rate was 89% and 86%.

And the killing ([1]; 4 μg hβD2 on collagen scaffold, 17th hour)?
The killing was 25%.

What about the “bio-activity of the scaffolds” value ([1]; 4 μg hβD2 on collagen scaffold, after 20 hours) of the same substance?
The value was “depleted”.

And the “killing (given as release amount in %)” value ([1]; 4 μg hβD2 on collagen scaffold, first 5 hours)?
The value was 38%.

What about the bacteria killing ([1]; 25 μg hβD2 on polylactide matrix coated with collagen and chondroitin sulphate, first two hours) of the same substance?
Its bacteria killing is 89%.

And the bacteria killing ([1]; 25 μg hβD2 on polylactide matrix coated with collagen, first two hours)?
Its bacteria killing is 100%.

And the bacteria killing ([1]; 25 μg hβD2 on uncoated polylactide matrix, first two hours)?
Its bacteria killing is 100%.

What about the killing ([1]; 30 μg hβD2 on collagen scaffold, after 13 hours) of the same substance?
Its killing is 29%.

And the killing rate ([1]; 30 μg hβD2 on collagen scaffold, after 17 hours)?
Its killing rate is 22%.

What about the “activity of the scaffold” value ([1]; 30 μg hβD2 on collagen scaffold, after 20 hours) of the same substance?
Its value is “inactive”.

And the killing rate ([1]; 30 μg hβD2 on collagen scaffold, first 5 hours)?
Its killing rate is 86%.

What about the “killing (given as release amount in %)” value ([1]; 125 μg hβD2 on collagen scaffold, after 5 hours) of the same substance?
Its value is 93%.

And the “diameter of zone of inhibition” value ([2]; 0.1 μg hβD2 directly applied)?
The value was 6 mm.

What about the “diameter of zone of inhibition” value ([2]; 1 μg hβD2 directly applied) of the same substance?
Its value is 9 mm.

What about the “diameter of zone of inhibition” value ([2]; 5 μg hβD2 directly applied) of the same substance?
Its value is 12 mm.

And the “diameter of zone of inhibition” value ([2]; 10 μg hβD2 directly applied)?
Its value is 15 mm.

What about the “formation of a zone of inhibition” value ([2]; 10 μg hβD2 on alginic acid film) of the same substance?
The value was “did not exhibit the formation of a zone of inhibition”.

And the “formation of a zone of inhibition” value ([2]; 10 μg hβD2 on hyaluronic acid film)?
The value was “did not exhibit the formation of a zone of inhibition”.
